Assay results published in ChEMBL document CHEMBL3826976, “New Insights into Human 17β-Hydroxysteroid Dehydrogenase Type 14: First Crystal Structures in Complex with a Steroidal Ligand and with a Potent Nonsteroidal Inhibitor” (J Med Chem, 2016).

Biological target: T1, 17-beta-hydroxysteroid dehydrogenase 14 (Homo sapiens) (UniProt Q9BPX1)
T1 sequence (whole entry): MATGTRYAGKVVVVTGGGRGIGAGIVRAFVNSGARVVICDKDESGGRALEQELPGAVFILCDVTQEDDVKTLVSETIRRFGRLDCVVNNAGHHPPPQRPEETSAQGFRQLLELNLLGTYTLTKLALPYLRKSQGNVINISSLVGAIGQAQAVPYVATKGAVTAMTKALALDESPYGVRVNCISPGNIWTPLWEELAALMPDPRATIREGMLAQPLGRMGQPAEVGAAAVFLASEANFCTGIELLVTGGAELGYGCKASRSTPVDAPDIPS
Description: Binding affinity to human 17-beta-HSD14 assessed as change in melting temperature at 0.25 mM by thermal shift assay

SMILES	ΔTm [°C]
C[C@]12CC[C@@H]3c4ccc(O)cc4CC[C@H]3[C@@H]1CC[C@@H]2O	1.5
C[C@]12CC[C@@H]3c4ccc(O)cc4CC[C@H]3[C@@H]1CCC2=O	1.5
